Reference: the supplement of paper PMC10307832

Legend:
Assay in all cases: relative viability (nuclei count vs DMSO), 5 days (fraction); higher = more cells survive
GSK-J4 + AZD7762 = compound: CCOC(=O)CCNc1cc(N2CCc3ccccc3CC2)nc(-c2ccccn2)n1 [GSK-J4] + NC(=O)Nc1cc(-c2cccc(F)c2)sc1C(=O)N[C@H]1CCCNC1 [AZD7762] (partner 0.2 µM)
How it was run: (§1)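 Cells from lung cancer lines were seeded into 1536-well plates and, one day later, dosed by pin tool. Treatments were either a single drug or a fixed dose of an anchor drug with five library-drug doses (not always all listed) in √10 steps. After 5 days, nuclei were stained in a one-step fixation (final 0.05% Triton X-100, 1% formaldehyde, 1 ug/ml Hoechst) and counted on 4× images, and relative viability is the treated-to-vehicle nuclei ratio, as the median of duplicate plates.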

GSK-J4 + Pemetrexed = compound: CCOC(=O)CCNc1cc(N2CCc3ccccc3CC2)nc(-c2ccccn2)n1 [GSK-J4] + Nc1nc2[nH]cc(CCc3ccc(C(=O)N[C@@H](CCC(=O)O)C(=O)O)cc3)c2c(=O)[nH]1 [Pemetrexed] (partner 0.2 µM)
How it was run: as §1

AZ3146 + Phenformin = compound: CN1CCC(CC1)OC2=CC(=C(C=C2)NC3=NC=C4C(=N3)N(C(=O)N4C)C5CCCC5)OC [AZ3146] + N=C(N)NC(=N)NCCc1ccccc1 [Phenformin] (partner 250 µM)
How it was run: as §1

GSK-J4 + Tozasertib = compound: CCOC(=O)CCNc1cc(N2CCc3ccccc3CC2)nc(-c2ccccn2)n1 [GSK-J4] + Cc1cc(Nc2cc(N3CCN(C)CC3)nc(Sc3ccc(NC(=O)C4CC4)cc3)n2)n[nH]1 [Tozasertib] (partner 0.1 µM)
How it was run: as §1

Cell Line | relative viability (GSK-J4 + AZD7762; first compound 0.5 µM) | relative viability (GSK-J4 + AZD7762; first compound 1.581 µM) | relative viability (GSK-J4 + AZD7762; first compound 15.81 µM) | relative viability (GSK-J4 + AZD7762; first compound 50 µM) | relative viability (GSK-J4 + Pemetrexed; first compound 0.5 µM) | relative viability (GSK-J4 + Pemetrexed; first compound 1.581 µM) | relative viability (GSK-J4 + Pemetrexed; first compound 5 µM) | relative viability (GSK-J4 + Pemetrexed; first compound 15.81 µM) | relative viability (GSK-J4 + Pemetrexed; first compound 50 µM) | relative viability (AZ3146 + Phenformin; first compound 0.08 µM) | relative viability (AZ3146 + Phenformin; first compound 0.253 µM) | relative viability (AZ3146 + Phenformin; first compound 2.53 µM) | relative viability (AZ3146 + Phenformin; first compound 8 µM) | relative viability (GSK-J4 + Tozasertib; first compound 0.5 µM) | relative viability (GSK-J4 + Tozasertib; first compound 1.581 µM) | relative viability (GSK-J4 + Tozasertib; first compound 15.81 µM) | relative viability (GSK-J4 + Tozasertib; first compound 50 µM) | relative viability (GSK-J4 + AZD7762; first compound 5 µM) | relative viability (AZ3146 + Phenformin; first compound 0.8 µM) | relative viability (GSK-J4 + Tozasertib; first compound 5 µM)
PC-14 | 0.503 | 0.316 | 0.315 | 0.343 | 0.128 | 0.143 | 0.13 | 0.143 | 0.17 | 0.563 | 0.465 | 0.579 | 0.314 | 0.547 | 0.542 | 0.564 | 0.665 | – | – | –
RERF-LC-KJ | 0.916 | 0.825 | 0.821 | 0.672 | 0.472 | 0.47 | 0.448 | 0.44 | 0.442 | 0.395 | 0.44 | 0.432 | 0.384 | 0.415 | 0.428 | 0.493 | 0.357 | 0.812 | 0.433 | 0.483
SW 900 | 0.68 | 0.676 | 0.57 | 0.55 | 0.478 | 0.478 | 0.475 | 0.442 | 0.526 | 0.625 | 0.576 | 0.502 | 0.383 | 0.478 | 0.463 | 0.408 | 0.333 | 0.597 | 0.439 | 0.696
